In patent US20070128217A1 (priority 2003, published 2007):

Legend:
[1] = system: antibodies in sera from SARS patients (sera 1a, 1b, 2, 6, 37, 62, London, SARS-yellow, SARS-green); type: binding, human; set-up: Binding of serum 6 to linear peptides of protein X1 of SARS-CoV Urbani / Binding of serum 37 to linear peptides of protein X1 of SARS-CoV Urbani / Binding of serum 6 to looped/cyclic peptide (PEPSCAN-ELISA) / Binding of serum 37 to looped/cyclic peptide (PEPSCAN-ELISA) / Binding of serum 37 to looped/cyclic peptides of protein X1 of SARS-CoV Urbani / Binding of serum 6 to linear peptides of protein X2 / Binding of serum 37 to linear peptides of protein X2 / Binding of serum 37 to looped/cyclic peptides of protein X2 of SARS-CoV Urbani / Binding of serum 6 to linear peptides of protein M of SARS-CoV Urbani / Binding of serum 37 to linear peptides of protein M of SARS-CoV Urbani / Binding of serum 6 to looped/cyclic peptides of protein M of SARS-CoV Urbani / Binding of serum 37 to looped/cyclic peptides of protein M of SARS-CoV Urbani / Binding of serum 6 to linear peptides of protein X3 of SARS-CoV Urbani / Binding of serum 37 to linear peptides of protein X3 of SARS-CoV Urbani / Binding of serum 37 to looped/cyclic peptides of protein X3 of SARS-CoV Urbani / Binding of serum 6 to linear peptides of protein X4 of SARS-CoV Urbani / Binding of serum 37 to linear peptides of protein X4 of SARS-CoV Urbani / Binding of serum 37 to looped/cyclic peptides of protein X4 of SARS-CoV Urbani / Binding of serum 6 to linear peptides of protein X5 of SARS-CoV Urbani / Binding of serum 37 to linear peptides of protein X5 of SARS-CoV Urbani / Binding of serum 37 to looped/cyclic peptides of protein X5 of SARS-CoV Urbani / Binding of serum 6 to linear peptides of protein N of SARS-CoV Urbani / Binding of serum 37 to linear peptides of protein N of SARS-CoV Urbani / Binding of serum 6 to linear peptide (PEPSCAN-ELISA) / Binding of serum 1a to looped/cyclic peptides of protein N of SARS-CoV Urbani / Binding of serum 1b to looped/cyclic peptides of protein N of SARS-CoV Urbani / Binding of serum 2 to looped/cyclic peptides of protein N of SARS-CoV Urbani / Binding of serum 6 to looped/cyclic peptides of protein N of SARS-CoV Urbani / Binding of serum 37 to looped/cyclic peptides of protein N of SARS-CoV Urbani / Binding of serum 62 to looped/cyclic peptides of protein N of SARS-CoV Urbani / Binding of serum London to looped/cyclic peptides of protein N of SARS-CoV Urbani / Binding of serum SARS-green to looped/cyclic peptides of protein N of SARS-CoV Urbani: unit not given here
[2] = system: control sera (pooled serum of ten healthy LUMC hospital workers; commercial negative donor pooled serum from the Dutch bloodbank); type: binding, human; set-up: Binding of Control serum LUMC to linear peptides / Binding of Control serum Blood-bank to linear peptides / Binding of Control serum LUMC to looped peptides / Binding of Control Serum Blood-Bank to Looped peptides / Binding of Control serum LUMC to linear peptides of the protein M of SARS-CoV Urbani / Binding of Control serum Blood-bank to linear peptides of the protein M of SARS-CoV Urbani / Binding of Control serum LUMC to looped peptides of the protein M of SARS-CoV Urbani / Binding of Control Serum Blood-Bank to Looped peptides of the protein M of SARS-CoV Urbani: unit not given here
[3] = system: rabbit serum obtained by immunizing a rabbit with the SARS-CoV strain Frankfurt 1; type: binding; set-up: Binding of a rabbit serum to linear peptides / Binding of a rabbit serum to looped peptides / Rabbit serum linear peptides / Rabbit serum looped peptides / Binding of a rabbit serum to linear peptides of protein N of SARS-CoV Urbani (Rabbit serum linear peptides) / Binding of a rabbit serum to looped/cyclic peptides of protein N of SARS-CoV Urbani (Rabbit serum looped peptides): unit not given here

## YNRYRIGNYKLNTDH
[1]
  Binding of serum 1a to linear peptides of protein M of SARS-CoV Urbani: 0.7
  Binding of serum 1a to looped/cyclic peptides of protein M of SARS-CoV Urbani: 0.8
  Binding of serum 1b to linear peptides of protein M of SARS-CoV Urbani: 0.6
  Binding of serum 1b to looped/cyclic peptides of protein M of SARS-CoV Urbani: 0.7
  Binding of serum 2 to linear peptides of protein M of SARS-CoV Urbani: 0.4
  Binding of serum 2 to looped/cyclic peptides of protein M of SARS-CoV Urbani: 0.7
  Binding of serum 6 to linear peptides of protein M of SARS-CoV Urbani: 0.5
  Binding of serum 6 to looped/cyclic peptides of protein M of SARS-CoV Urbani: 1.1
  Binding of serum 37 to linear peptides of protein M of SARS-CoV Urbani: 0.5
  Binding of serum 37 to looped/cyclic peptides of protein M of SARS-CoV Urbani: 0.5
  Binding of serum 62 to linear peptides of protein M of SARS-CoV Urbani: 0.4
  Binding of serum 62 to looped/cyclic peptides of protein M of SARS-CoV Urbani: 0.6
  Binding of serum London to linear peptides of protein M of SARS-CoV Urbani: 0.5
  Binding of serum London to looped/cyclic peptides of protein M of SARS-CoV Urbani: 0.6
  Binding of serum SARS-green to linear peptides of protein M of SARS-CoV Urbani: 0.4
  Binding of serum SARS-green to looped/cyclic peptides of protein M of SARS-CoV Urbani: 0.3
  Binding of serum SARS-yellow to linear peptides of protein M of SARS-CoV Urbani: 0.1
  Binding of serum SARS-yellow to looped/cyclic peptides of protein M of SARS-CoV Urbani: 0.7
[2]
  Binding of Control Serum Blood-Bank to Looped peptides of the protein M of SARS-CoV Urbani: 0.8
  Binding of Control serum Blood-bank to linear peptides of the protein M of SARS-CoV Urbani: 0.5
  Binding of Control serum LUMC to linear peptides of the protein M of SARS-CoV Urbani: 0.6
  Binding of Control serum LUMC to looped peptides of the protein M of SARS-CoV Urbani: 0.9
[3]
  Rabbit serum linear peptides: 0.3
  Rabbit serum looped peptides: 0.5

## TIVTRPLMESELVIG
[1]
  Binding of serum 1a to linear peptides of protein M of SARS-CoV Urbani: 0.8
  Binding of serum 1b to linear peptides of protein M of SARS-CoV Urbani: 0.6
  Binding of serum 2 to linear peptides of protein M of SARS-CoV Urbani: 0.6
  Binding of serum 6 to linear peptides of protein M of SARS-CoV Urbani: 0.4
  Binding of serum 37 to linear peptides of protein M of SARS-CoV Urbani: 0.7
  Binding of serum 62 to linear peptides of protein M of SARS-CoV Urbani: 0.9
  Binding of serum London to linear peptides of protein M of SARS-CoV Urbani: 0.3
  Binding of serum SARS-green to linear peptides of protein M of SARS-CoV Urbani: 0.3
  Binding of serum SARS-yellow to linear peptides of protein M of SARS-CoV Urbani: 0.1
  Recognition of the peptide by sera of SARS-CoV infected individuals, and form (linear, looped/cyclic) in which it is recognized: recognized in looped/cyclic form
[2]
  Binding of Control Serum Blood-Bank to Looped peptides of the protein M of SARS-CoV Urbani: 0.9
  Binding of Control serum Blood-bank to linear peptides of the protein M of SARS-CoV Urbani: 0.8
  Binding of Control serum LUMC to linear peptides of the protein M of SARS-CoV Urbani: 0.5
  Binding of Control serum LUMC to looped peptides of the protein M of SARS-CoV Urbani: 1.0
[3]
  Rabbit serum linear peptides: 0.3
  Rabbit serum looped peptides: 0.3

## PFHRWHTMVQTCTPN
[1]
  Binding of serum 1a to linear peptides of protein X5 of SARS-CoV Urbani: 0.7
  Binding of serum 1a to looped/cyclic peptides of protein X5 of SARS-CoV Urbani: 0.6
  Binding of serum 1b to linear peptides of protein X5 of SARS-CoV Urbani: 0.7
  Binding of serum 1b to looped/cyclic peptides of protein X5 of SARS-CoV Urbani: 0.5
  Binding of serum 2 to linear peptides of protein X5 of SARS-CoV Urbani: 0.7
  Binding of serum 2 to looped/cyclic peptides of protein X5 of SARS-CoV Urbani: 0.6
  Binding of serum 6 to linear peptides of protein X5 of SARS-CoV Urbani: 0.7
  Binding of serum 6 to looped/cyclic peptides of protein X5 of SARS-CoV Urbani: 0.3
  Binding of serum 37 to linear peptides of protein X5 of SARS-CoV Urbani: 0.7
  Binding of serum 37 to looped/cyclic peptides of protein X5 of SARS-CoV Urbani: 0.5
  Binding of serum 62 to linear peptides of protein X5 of SARS-CoV Urbani: 0.7
  Binding of serum 62 to looped/cyclic peptides of protein X5 of SARS-CoV Urbani: 0.3
  Binding of serum London to linear peptides of protein X5 of SARS-CoV Urbani: 0.7
  Binding of serum London to looped/cyclic peptides of protein X5 of SARS-CoV Urbani: 0.2
  Binding of serum SARS-green to linear peptides of protein X5 of SARS-CoV Urbani: 0.5
  Binding of serum SARS-green to looped/cyclic peptides of protein X5 of SARS-CoV Urbani: 0.3
  Binding of serum SARS-yellow to linear peptides of protein X5 of SARS-CoV Urbani: 0.4
  Binding of serum SARS-yellow to looped/cyclic peptides of protein X5 of SARS-CoV Urbani: 0.3
[2]
  Binding of Control Serum Blood-Bank to Looped peptides: 0.5
  Binding of Control serum Blood-bank to linear peptides: 0.7
  Binding of Control serum LUMC to linear peptides: 0.5
  Binding of Control serum LUMC to looped peptides: 0.4
[3]
  Rabbit serum linear peptides: 0.5
  Rabbit serum looped peptides: 0.4
